Data reported in patent publication US6440935B1, “Inhibition of eucaryotic pathogens and neoplasms and stimulation of fibroblasts and lymphocytes with lytic peptides” (priority 1987, dated 2002).
Residues, ends and D or L forms follow the SMILES beside them.

System: T. cruzi intracellular amastigotes in Vero cells
Experiment: In vitro effect on T. cruzi intracellular amastigotes in Vero cells
Assay type: cell-based, Trypanosoma cruzi
Conditions: one hour period, relative to no peptide
Experimental: Vero cells at 10^5 cells/ml in MEM-FBS were mixed with Trypanosoma Cruzi in the trypomastigote stage at 10^5 cells/ml in the same medium at a 1:1 ratio of Vero cells to trypomastigotes. The mixture of Vero cells and trypomastigotes was cultured at 37° C. in a 5% CO2 atmosphere in microscope slide chambers. At 24 hours, cecropin SB-37 was added to the chambers, except for a set of controls, at a final concentration of 100 μM. […]

For `CC[C@H](C)[C@H](NC(=O)CNC(=O)[C@H](CC(N)=O)NC(=O)[C@H](CCCNC(=N)N)NC(=O)[C@@H](NC(=O)[C@H](CC(N)=O)NC(=O)[C@H](CCCNC(=N)N)NC(=O)CNC(=O)[C@H](CCSC)NC(=O)[C@H](CCCCN)NC(=O)[C@H](CCC(=O)O)NC(=O)[C@@H](NC(=O)[C@H](CCCCN)NC(=O)[C@H](CCCCN)NC(=O)[C@H](Cc1ccccc1)NC(=O)[C@@H](NC(=O)[C@H](CCCCN)NC(=O)[C@H](Cc1c[nH]c2ccccc12)NC(=O)[C@H](CCCCN)NC(=O)[C@@H]1CCCN1C(=O)[C@@H](N)CCSC)C(C)C)[C@@H](C)CC)[C@@H](C)CC)C(=O)N[C@H](C(=O)N[C@@H](CCCCN)C(=O)N[C@@H](C)C(=O)NCC(=O)N1CCC[C@H]1C(=O)N[C@@H](C)C(=O)N[C@H](C(=O)N[C@@H](C)C(=O)N[C@H](C(=O)N[C@@H](CC(C)C)C(=O)NCC(=O)N[C@@H](CCC(=O)O)C(=O)N[C@@H](C)C(=O)N[C@@H](CCCCN)C(=O)N[C@@H](C)C(=O)N[C@@H](CC(C)C)C(=O)NCC(N)=O)C(C)C)[C@@H](C)CC)C(C)C` [Cecropin SB-37] (H-MPKWKVFKKIEKMGRNIRNGIVKAGPAIAVLGEAKALG-NH2), the “LD50 (concentration for 50% reduction in number of infected Vero cells)” value was “about 90 μM”.
